Patent US10669242B2 (priority 2016, dated 2020)

What follows are compounds tested against T1, recombinant glucosyltransferase domain of C. difficile Toxin B/TcdB (Clostridioides difficile, UniProt P18177) (assay: biochemical).
T1 construct: 6-His (C); purchased R&D Systems 6246-GT
T1 sequence (P18177 1-543): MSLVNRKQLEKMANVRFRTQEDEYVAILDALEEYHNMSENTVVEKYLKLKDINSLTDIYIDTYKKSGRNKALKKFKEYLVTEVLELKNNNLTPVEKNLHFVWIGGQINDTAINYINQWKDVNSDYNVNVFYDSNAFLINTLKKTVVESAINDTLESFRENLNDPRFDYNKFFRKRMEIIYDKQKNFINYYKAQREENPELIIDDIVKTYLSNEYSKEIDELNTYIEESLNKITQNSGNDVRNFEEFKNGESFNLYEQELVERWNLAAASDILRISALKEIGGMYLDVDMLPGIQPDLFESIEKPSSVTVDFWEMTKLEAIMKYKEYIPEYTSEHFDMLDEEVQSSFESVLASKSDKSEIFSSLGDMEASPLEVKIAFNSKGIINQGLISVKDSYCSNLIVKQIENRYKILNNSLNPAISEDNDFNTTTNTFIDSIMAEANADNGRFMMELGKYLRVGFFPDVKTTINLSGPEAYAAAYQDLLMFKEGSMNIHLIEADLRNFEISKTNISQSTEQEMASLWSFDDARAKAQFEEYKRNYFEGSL

Compared with `Cc1ccc(NC(=O)c2ccc(CN3C(=O)c4ccc(Cl)cc4NC(=O)[C@H]3CCN3CCC(O)CC3)cc2)nc1` [Example 10c, (R)-4-((8-chloro-3-(2-(4-hydroxypiperidin-1-yl)ethyl)-2,5-dioxo-2,3-dihydro-1H-benzo[e][1,4]diazepin-4(5H)-yl)methyl)-N-(5-methylpyridin-2-yl)benzamide], `O=C(Nc1ccc(N2CCOCC2)cn1)c1ccc(CN2C(=O)c3ccc(Cl)cc3NC(=O)[C@H]2Cc2ccccn2)cc1` [Example 4av, (R)-4-((8-chloro-2,5-dioxo-3-(pyridin-2-ylmethyl)-2,3-dihydro-1H-benzo[e][1,4]diazepin-4(5H)-yl)methyl)-N-(5-morpholinopyridin-2-yl)benzamide] is lower in IC50: 1000 to 10000 nM for the first, under 100 nM for the second. The second is the more potent here.

`Cc1cnc(NC(=O)c2ccc(S(=O)(=O)N3Cc4ccc(Cl)cc4NC(=O)[C@@H]3Cc3ccccn3)cc2)nc1` [Example 19e, (S)-4-((8-chloro-2-oxo-3-(pyridin-2-ylmethyl)-2,3-dihydro-1H-benzo[e][1,4]diazepin-4(5H)-yl)sulfonyl)-N-(5-methylpyrimidin-2-yl)benzamide] and `COc1ccc(NC(=O)c2ccc(S(=O)(=O)N3Cc4ccc(Cl)cc4NC(=O)[C@@H]3Cc3ccccn3)cc2)nc1` [Example 19d, (S)-4-((8-chloro-2-oxo-3-(pyridin-2-ylmethyl)-2,3-dihydro-1H-benzo[e][1,4]diazepin-4(5H)-yl)sulfonyl)-N-(5-methoxypyridin-2-yl)benzamide] fall in the same range of IC50: 100 to 999 nM for the first, 100 to 999 nM for the second.

`C[C@@H]1C(=O)Nc2cc(Cl)ccc2C(=O)N1Cc1ccc(C(=O)O)cc1` [Example 3g] and `O=C(O)c1ccc(CN2C(=O)c3ccc(Cl)cc3NC(=O)[C@H]2Cc2cccs2)cc1` [Example 1k] fall in the same range of IC50: 10000 to 35000 nM for the first, 10000 to 35000 nM for the second.

First: CC(=O)NC(=O)c1ccc(CN2C(=O)c3ccc(Cl)cc3NC(=O)[C@H]2Cc2ccccn2)cc1 [Example 12a, (R)—N-Acetyl-4-((8-chloro-2,5-dioxo-3-(pyridin-2-ylmethyl)-2,3-dihydro-1H-benzo[e][1,4]diazepin-4(5H)-yl)methyl)benzamide]
Second: Cc1nnc(NC(=O)c2ccc(CN3C(=O)c4ccc(Cl)cc4NC(=O)[C@H]3Cc3ccccn3)cc2)s1 [Example 4bn, (R)-4-((8-chloro-2,5-dioxo-3-(pyridin-2-ylmethyl)-2,3-dihydro-1H-benzo[e][1,4]diazepin-4(5H)-yl)methyl)-N-(5-methyl-1,3,4-thiadiazol-2-yl)benzamide]
The IC50 of the first is lower: under 100 nM for the first, 1000 to 10000 nM for the second.

`O=C(Nc1ccc(CN2C(=O)c3ccc(Cl)cc3NC(=O)[C@H]2Cc2ccccn2)cc1)c1ncc[nH]1` [Example 27h] and `COc1ccc(NC(=O)c2ccc(CN3C(=O)c4ccc(Cl)cc4NC(=O)[C@H]3Cc3ccccn3)cc2)nc1` [Example 4ao, (R)-4-((8-chloro-2,5-dioxo-3-(pyridin-2-ylmethyl)-2,3-dihydro-1H-benzo[e][1,4]diazepin-4(5H)-yl)methyl)-N-(5-methoxypyridin-2-yl)benzamide] cannot be ordered by IC50: under 100 nM for the first, under 100 nM for the second.

Compared with `CC1C(=O)Nc2cc(Cl)ccc2C(=O)N1C1(c2ccc(C(=O)c3cccn4ccnc34)cc2)CC1` (stereo not drawn) [Example 50a, 8-Chloro-4-(1-(4-(imidazo[1,2-α]pyridine-8-carbonyl)phenyl)cyclopropyl)-3-methyl-3,4-dihydro-1H-benzo[e][1,4]diazepine-2,5-dione], `O=C(c1ccc(CN2C(=O)c3ccc(Cl)cc3NC(=O)[C@H]2Cc2ccccn2)cc1)c1cccn2ncnc12` [Example 31f] is lower in IC50: 100 to 999 nM for the first, under 100 nM for the second.

Compared with `Cc1ccc2c(c1)NC(=O)[C@@H](Cc1ccc(Cl)c(Cl)c1)N(Cc1ccc(C(=O)O)cc1)C2=O` [Example 1e], `O=C(O)c1ccc(CN2C(=O)c3ccc(Cl)cc3NC(=O)[C@H]2Cc2ccccc2)cc1` [Example 3a, (R)-4-((3-Benzyl-8-chloro-2,5-dioxo-2,3-dihydro-1H-benzo[e][1,4]diazepin-4(5H)-yl)methyl)benzoic Acid] is lower in IC50: 10000 to 35000 nM for the first, 1000 to 10000 nM for the second. The second is the more potent here.

`COc1cccc(-c2cc(CN3C(=O)c4ccc(Cl)cc4NC(=O)[C@H]3Cc3ccccn3)ccc2C(=O)O)c1` [Example 8b, (R)-5-((8-chloro-2,5-dioxo-3-(pyridin-2-ylmethyl)-2,3-dihydro-1H-benzo[e][1,4]diazepin-4(5H)-yl)methyl)-3′-methoxy-[1,1′-biphenyl]-2-carboxylic acid] and `O=C(O)c1ccc(CN2C(=O)c3ccc(Cl)cc3NC(=O)[C@H]2Cc2ccccn2)cc1-c1cccc(Cl)c1` [Example 8j, (R)-3′-chloro-5-((8-chloro-2,5-dioxo-3-(pyridin-2-ylmethyl)-2,3-dihydro-1H-benzo[e][1,4]diazepin-4(5H)-yl)methyl)-[1,1′-biphenyl]-2-carboxylic acid] fall in the same range of IC50: 100 to 999 nM for the first, 100 to 999 nM for the second.

`O=C(Nc1ncccc1F)c1ccc(CN2C(=O)c3ccc(Cl)cc3NC(=O)[C@H]2Cc2ccccn2)cc1Cl` [Example 5ac, (R)-2-chloro-4-((8-chloro-2,5-dioxo-3-(pyridin-2-ylmethyl)-2,3-dihydro-1H-benzo[e][1,4]diazepin-4(5H)-yl)methyl)-N-(3-fluoropyridin-2-yl)benzamide] and `COc1cc(CN2C(=O)c3ccc(Cl)cc3NC(=O)[C@H]2Cc2ccccn2)ccc1C(=O)Nc1ccc(F)cn1` [Example 5aq, (R)-4-((8-chloro-2,5-dioxo-3-(pyridin-2-ylmethyl)-2,3-dihydro-1H-benzo[e][1,4]diazepin-4(5H)-yl)methyl)-N-(5-fluoropyridin-2-yl)-2-methoxybenzamide] cannot be ordered by IC50: under 100 nM for the first, under 100 nM for the second.

`O=C(O)c1ccc(CN2C(=O)c3ccc(Cl)cc3NC(=O)[C@H]2Cc2ccccn2)s1` [Example 1h] and `O=C(O)c1ccc(CN2C(=O)c3ccc(Cl)cc3NC(=O)[C@H]2Cc2ccccn2)cc1F` [Example 1i] fall in the same range of IC50: 100 to 999 nM for the first, 100 to 999 nM for the second.

`CC(=O)Nc1ccc(-c2cc(CN3C(=O)c4ccc(Cl)cc4NC(=O)[C@H]3Cc3ccccn3)ccc2C(=O)O)cc1` [Example 8n, (R)-4′-acetamido-5-((8-chloro-2,5-dioxo-3-(pyridin-2-ylmethyl)-2,3-dihydro-1H-benzo[e][1,4]diazepin-4(5H)-yl)methyl)-[1,1′-biphenyl]-2-carboxylic acid] and `O=C(O)c1ccc(CN2C(=O)c3ccc(Cl)cc3NC(=O)[C@H]2Cc2ccccn2)cc1-c1cn[nH]c1` [Example 8r, (R)-4-((8-chloro-2,5-dioxo-3-(pyridin-2-ylmethyl)-2,3-dihydro-1H-benzo[e][1,4]diazepin-4(5H)-yl)methyl)-2-(1H-pyrazol-4-yl)benzoic acid] fall in the same range of IC50: 100 to 999 nM for the first, 100 to 999 nM for the second.

Compared with `O=C(Nc1ccccn1)c1ccc(CN2C(=O)c3ccc(C(F)(F)F)cc3NC(=O)[C@H]2Cc2ccc(Cl)c(Cl)c2)cc1` [Example 35f], `O=C(Nc1ccccn1)c1ccc(CN2C(=O)c3ccc(Cl)cc3NC(=O)[C@H]2Cc2cccc(Cl)c2)cc1` [Example 4aa, (R)-4-((8-chloro-3-(3-chlorobenzyl)-2,5-dioxo-2,3-dihydro-1H-benzo[e][1,4]diazepin-4(5H)-yl)methyl)-N-(pyridin-2-yl)benzamide] is lower in IC50: 1000 to 10000 nM for the first, under 100 nM for the second.

`Cc1cnc(NC(=O)c2ccc(CN3C(=O)c4ccc(Cl)cc4NC(=O)[C@H]3C)cc2)cn1` [Example 4bi, (R)-4-((8-chloro-3-methyl-2,5-dioxo-2,3-dihydro-1H-benzo[e][1,4]diazepin-4(5H)-yl)methyl)-N-(5-methylpyrazin-2-yl)benzamide] and `C[C@@H]1C(=O)Nc2cc(Cl)ccc2C(=O)N1Cc1ccc(C(=O)Nc2ncc3ccccc3n2)cc1` [Example 5n, (R)-4-((8-chloro-3-methyl-2,5-dioxo-2,3-dihydro-1H-benzo[e][1,4]diazepin-4(5H)-yl)methyl)-N-(quinazolin-2-yl)benzamide] fall in the same range of IC50: 100 to 999 nM for the first, 100 to 999 nM for the second.

Compared with `O=C1Nc2cc(Cl)ccc2C(=O)N(Cc2ccc(C(=O)N3CCc4cccnc43)cc2)[C@@H]1Cc1ccccn1` [Example 4ah, (R)-8-chloro-4-(4-(2,3-dihydro-1H-pyrrolo[2,3-b]pyridine-1-carbonyl)benzyl)-3-(pyridin-2-ylmethyl)-3,4-dihydro-1H-benzo[e][1,4]diazepine-2,5-dione], `O=C(Nc1ccccn1)c1ccc(CN2C(=O)c3ccc(Cl)cc3NC(=O)[C@@H]2Cc2cccnc2)cc1` [Example 35m] is higher in IC50: under 100 nM for the first, 100 to 999 nM for the second.

`C[C@@H]1C(=O)Nc2cc(Cl)ccc2C(=O)N1Cc1ccc(C(=O)Nc2ccc(C(F)(F)F)cn2)c(Br)c1` [Example 5ar, (R)-2-bromo-4-((8-chloro-3-methyl-2,5-dioxo-2,3-dihydro-1H-benzo[e][1,4]diazepin-4(5H)-yl)methyl)-N-(5-(trifluoromethyl)pyridin-2-yl)benzamide] and `O=C(Nc1ccccn1)c1ccc(CN2C(=O)c3ccc(Cl)cc3NC(=O)[C@H]2c2ccccc2)cc1` [Example 35c] fall in the same range of IC50: 1000 to 10000 nM for the first, 1000 to 10000 nM for the second.

First: CC(=NO)NC(=O)c1ccc(CN2C(=O)c3ccc(Cl)cc3NC(=O)[C@H]2Cc2cccnc2)cc1 [Example 4bv, (R)-4-((8-chloro-2,5-dioxo-3-(pyridin-3-ylmethyl)-2,3-dihydro-1H-benzo[e][1,4]diazepin-4(5H)-yl)methyl)-N-(1-(hydroxyimino)ethyl)benzamide]
Second: COc1ccc2c(c1)NC(=O)[C@@H](Cc1cccnc1)N(Cc1ccc(C(=O)O)cc1)C2=O [Example 2e]
The IC50 of the first is lower: 100 to 999 nM for the first, 1000 to 10000 nM for the second.

First: O=C(Nc1ccccn1)c1ccc(CN2C(=O)c3cc(Cl)ccc3NC(=O)[C@H]2Cc2cccnc2)cc1 [Example 35h]
Second: O=C(NS(=O)(=O)c1ccccc1)c1ccc(CN2C(=O)c3ccc(Cl)cc3NC(=O)[C@H]2Cc2cccnc2)cc1 [Example 15a, (R)-4-((8-Chloro-2,5-dioxo-3-(pyridin-3-ylmethyl)-2,3-dihydro-1H-benzo[e][1,4]diazepin-4(5H)-yl)methyl)-N-(phenylsulfonyl)benzamide]
The IC50 of the first is lower: 100 to 999 nM for the first, 1000 to 10000 nM for the second. The first is the more potent here.

First: O=C1Nc2cc(Cl)ccc2C(=O)N(C[C@H]2CC[C@H](C(=O)O)CC2)[C@@H]1Cc1ccccn1 [Example 1j]
Second: O=C1Nc2cc(Cl)ccc2C(=O)N(Cc2cccc(NS(=O)(=O)c3ccccn3)c2)[C@@H]1Cc1ccccn1 [Example 30c]
The IC50 of the first is higher: 10000 to 35000 nM for the first, 1000 to 10000 nM for the second.

For `O=C1Nc2cc(Cl)ccc2C(=O)N(Cc2ccc3c(Nc4ccccn4)nccc3c2)[C@@H]1Cc1ccccn1` [Example 49e], the IC50 was under 100 nM.
